ChEMBL document CHEMBL1129616, “Synthesis and evaluation of novel thymidine analogs as antitumor and antiviral agents” (J Med Chem, 1996)

Test system: SV-28
Experiment: Compound was tested for its effect on (target DNA or RNA) cell plating efficiency at 25 uM after a 24 hr exposure (the SV-28 cell has a plating efficiency between 50 and 60%)
Assay type: functional, Cricetulus griseus

For `CCCCCCCCCCCCCCCC(=O)CC[N+](C)(C)CCOCn1cc(C)c(=O)[nH]c1=O.[I-]`, which Cell plating efficiency is on record?
Its Cell plating efficiency is 47%.
